Assay results as given in US6372457B1, “Process and materials for production of glucosamine” (Arkion Life Sciences LLC, priority 1997, dated 2002).

Target: T1, glucosamine-6-phosphate synthase (Escherichia coli, UniProt P17169)
T1 construct: allowed mutagenesis of a 2247 base pair region that included the entire glmS gene; made in house; host or cells: E. coli W3110-derived (DE3) production strains with integrated T7-glmS cassette; crude extract
Assay type: biochemical
Conditions: spectrophotometric assay, FIG. 5
Description: In the spectrophotometric assay, 1 mL reactions containing 50 mM KH2PO4/K2HPO4, 10 nM fructose-6-phosphate, 6 mM L-glutamine, 10 mM KCl, 0.6 mM acetylpyridine adenine dinucleotide (APAD), and 50-60 Units of L-glutamic dehydrogenase (Sigma Type II from bovine liver) were run at room temperature. The activity was followed by monitoring the absorbance at 365 nm after the addition of extract and corrected for the small absorbance increase observed in the absence of extract. The activity was calculated using a molar extinction coefficient for APAD of 9100.
Using the spectrophotometric assay for glucosamine-6-phosphate synthase as described in Example 2, the effects of glucosamine-6-phosphate and glucosamine on glucosamine-6-phosphate synthase were measured. For determination of product inhibition, assays were run in the presence of various concentrations of added glucosamine-6-phosphate.
The strains were grown overnight in LB broth containing 100 μg/mL ampicillin and 1 mM IPTC. […]
Strains 2123-12, 2123-49, 2123-54, 2123-124, 2123-149, and 2123-151, described in the examples above, were grown overnight in LB broth at 37° C. then transferred to fresh LB broth. Cultures were grown to an absorbance at 600 nm of 0.8 to 0.9, then induced for GlcN6P synthase production by the addition of 1 mM IPTG. […]

T1 sequence (P17169 2-609): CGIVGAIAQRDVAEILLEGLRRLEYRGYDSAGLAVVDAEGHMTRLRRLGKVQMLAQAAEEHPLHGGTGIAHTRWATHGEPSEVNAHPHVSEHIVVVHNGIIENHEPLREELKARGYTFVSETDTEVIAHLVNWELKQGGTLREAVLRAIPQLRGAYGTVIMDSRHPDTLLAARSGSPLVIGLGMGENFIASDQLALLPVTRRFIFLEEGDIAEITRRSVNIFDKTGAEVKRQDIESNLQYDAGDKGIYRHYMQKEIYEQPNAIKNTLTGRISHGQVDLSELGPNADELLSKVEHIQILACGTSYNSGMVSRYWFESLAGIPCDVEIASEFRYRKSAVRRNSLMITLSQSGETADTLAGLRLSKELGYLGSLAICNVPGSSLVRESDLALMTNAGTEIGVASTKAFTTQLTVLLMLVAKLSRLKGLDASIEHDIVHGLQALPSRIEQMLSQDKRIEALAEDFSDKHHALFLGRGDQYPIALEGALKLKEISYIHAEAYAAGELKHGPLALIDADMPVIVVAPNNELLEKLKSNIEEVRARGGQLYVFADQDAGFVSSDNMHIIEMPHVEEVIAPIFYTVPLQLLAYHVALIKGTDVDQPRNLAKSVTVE

| Structure (SMILES) | Inhibition of glucosamine-6-phosphate synthase by the added substance |
| --- | --- |
| N[C@H]1C(O)O[C@H](CO)[C@@H](O)[C@@H]1O (some centres unmarked) [glucosamine] | slightly inhibited |
| N[C@H]1C(O)O[C@H](COP(=O)(O)O)[C@@H](O)[C@@H]1O (some centres unmarked) [glucosamine-6-phosphate] | significantly inhibited |
